Converted amounts (≈) assume the structure as drawn. The source made the active and inactive calls. The rule behind the calls is not given here.
Experiments:
Staphylococcus aureus [1] = test: Antimicrobial activity against methicillin-resistant Staphylococcus aureus ATCC 43300; format: functional
Staphylococcus aureus [2] = test: Antimicrobial activity against methicillin-resistant Staphylococcus aureus ATCC 43300 in human monocyte-derived macrophages at 2.5 ug/ml assessed as bacterial viability after 24 hrs; format: functional
Staphylococcus aureus [3] = test: Antimicrobial activity against methicillin-susceptible Staphylococcus aureus ATCC 29213 in human monocyte-derived macrophages at 5 ug/ml assessed as bacterial viability after 4 hrs; format: functional
Staphylococcus aureus [4] = test: Antimicrobial activity against methicillin-susceptible Staphylococcus aureus ATCC 29213 in human monocyte-derived macrophages at 5 ug/ml assessed as bacterial viability after 24 hrs; format: functional
Staphylococcus aureus [5] = test: Antimicrobial activity against methicillin-resistant Staphylococcus aureus ATCC 43300 in human monocyte-derived macrophages at 5 ug/ml assessed as bacterial viability after 4 hrs; format: functional
Staphylococcus aureus [6] = test: Antimicrobial activity against methicillin-resistant Staphylococcus aureus ATCC 43300 in human monocyte-derived macrophages at 5 ug/ml assessed as bacterial viability after 2 hrs; format: functional
Staphylococcus aureus [7] = test: Antimicrobial activity against methicillin-resistant Staphylococcus aureus ATCC 43300 in human monocyte-derived macrophages at 0.25 ug/ml assessed as bacterial viability after 24 hrs; format: functional
Staphylococcus aureus [8] = test: Antimicrobial activity against methicillin-susceptible Staphylococcus aureus ATCC 29213 in human monocyte-derived macrophages at 0.25 ug/ml assessed as bacterial viability after 24 hrs; format: functional
Staphylococcus aureus [9] = test: Antimicrobial activity against methicillin-susceptible Staphylococcus aureus ATCC 29213 in human monocyte-derived macrophages at 0.5 ug/ml assessed as bacterial viability after 4 hrs; format: functional
Staphylococcus aureus [10] = test: Antimicrobial activity against methicillin-resistant Staphylococcus aureus ATCC 43300 in human monocyte-derived macrophages at 0.25 ug/ml assessed as bacterial viability after 2 hrs; format: functional
Staphylococcus aureus [11] = test: Antimicrobial activity against methicillin-susceptible Staphylococcus aureus ATCC 29213 in human monocyte-derived macrophages at 0.25 ug/ml assessed as bacterial viability after 2 hrs; format: functional
Staphylococcus aureus [12] = test: Antimicrobial activity against methicillin-susceptible Staphylococcus aureus ATCC 29213 in human monocyte-derived macrophages at 2.5 ug/ml assessed as bacterial viability after 24 hrs; format: functional
Staphylococcus aureus [13] = test: Antimicrobial activity against methicillin-resistant Staphylococcus aureus ATCC 43300 in human monocyte-derived macrophages at 0.5 ug/ml assessed as bacterial viability after 4 hrs; format: functional
Staphylococcus aureus [14] = test: Antimicrobial activity against methicillin-resistant Staphylococcus aureus ATCC 43300 in human monocyte-derived macrophages at 0.5 ug/ml assessed as bacterial viability after 24 hrs; format: functional
Staphylococcus aureus [15] = test: Antimicrobial activity against methicillin-resistant Staphylococcus aureus 8111; format: functional
Staphylococcus aureus [16] = test: Antimicrobial activity against methicillin-susceptible Staphylococcus aureus ATCC 29213 in human monocyte-derived macrophages at 0.25 ug/ml assessed as bacterial viability after 4 hrs; format: functional
Staphylococcus aureus [17] = test: Antimicrobial activity against methicillin-susceptible Staphylococcus aureus ATCC 29213 in human monocyte-derived macrophages at 0.5 ug/ml assessed as bacterial viability after 2 hrs; format: functional
Staphylococcus aureus [18] = test: Antimicrobial activity against methicillin-susceptible Staphylococcus aureus ATCC 29213 in human monocyte-derived macrophages at 0.5 ug/ml assessed as bacterial viability after 24 hrs; format: functional
Staphylococcus aureus [19] = test: Antimicrobial activity against methicillin-susceptible Staphylococcus aureus ATCC 29213 in human monocyte-derived macrophages at 5 ug/ml assessed as bacterial viability after 2 hrs; format: functional
Staphylococcus aureus [20] = test: Antimicrobial activity against methicillin-susceptible Staphylococcus aureus ATCC 29213; format: functional
Staphylococcus aureus [21] = test: Antimicrobial activity against methicillin-susceptible Staphylococcus aureus ATCC 29213 in human monocyte-derived macrophages at 2.5 ug/ml assessed as bacterial viability after 4 hrs; format: functional
Staphylococcus aureus [22] = test: Antimicrobial activity against methicillin-resistant Staphylococcus aureus ATCC 43300 in human monocyte-derived macrophages at 0.5 ug/ml assessed as bacterial viability after 2 hrs; format: functional
Staphylococcus aureus [23] = test: Antimicrobial activity against methicillin-resistant Staphylococcus aureus ATCC 43300 in human monocyte-derived macrophages at 2.5 ug/ml assessed as bacterial viability after 4 hrs; format: functional
Staphylococcus aureus [24] = test: Antimicrobial activity against methicillin-resistant Staphylococcus aureus ATCC 43300 in human monocyte-derived macrophages at 5 ug/ml assessed as bacterial viability after 24 hrs; format: functional
Staphylococcus aureus [25] = test: Antimicrobial activity against methicillin-resistant Staphylococcus aureus ATCC 43300 in human monocyte-derived macrophages at 2.5 ug/ml assessed as bacterial viability after 2 hrs; format: functional
Staphylococcus aureus [26] = test: Antimicrobial activity against methicillin-susceptible Staphylococcus aureus ATCC 29213 in human monocyte-derived macrophages at 2.5 ug/ml assessed as bacterial viability after 2 hrs; format: functional
Staphylococcus aureus [27] = test: Extracellular killing of Staphylococcus aureus 8111 in MH-2 broth at 0.5 ug/ml assessed as suppression of number of viable bacteria after 24 hrs; format: functional, organism-based
Staphylococcus aureus [28] = test: Antimicrobial activity against methicillin-resistant Staphylococcus aureus ATCC 43300 in human monocyte-derived macrophages at 0.25 ug/ml assessed as bacterial viability after 4 hrs; format: functional

Row | Molecule | MIC (Staphylococcus aureus [1]) [µg/mL] | log10CFU/ml (Staphylococcus aureus [2]) | log10CFU/ml (Staphylococcus aureus [3]) | log10CFU/ml (Staphylococcus aureus [4]) | log10CFU/ml (Staphylococcus aureus [5]) | log10CFU/ml (Staphylococcus aureus [6]) | log10CFU/ml (Staphylococcus aureus [7]) | log10CFU/ml (Staphylococcus aureus [8]) | log10CFU/ml (Staphylococcus aureus [9]) | log10CFU/ml (Staphylococcus aureus [10]) | log10CFU/ml (Staphylococcus aureus [11]) | log10CFU/ml (Staphylococcus aureus [12]) | log10CFU/ml (Staphylococcus aureus [13]) | log10CFU/ml (Staphylococcus aureus [14]) | MIC (Staphylococcus aureus [15]) [µg/mL] | log10CFU/ml (Staphylococcus aureus [16]) | log10CFU/ml (Staphylococcus aureus [17]) | log10CFU/ml (Staphylococcus aureus [18]) | log10CFU/ml (Staphylococcus aureus [19]) | MIC (Staphylococcus aureus [20]) [µg/mL] | other results
1 | Cc1onc(-c2ccccc2)c1C(=O)N[C@@H]1C(=O)N2[C@@H]1SC(C)(C)[C@@H]2C(=O)O [OXACILLIN] | 16 (≈ 39.9 µM) | -2.7 | -1.72 | -2.7 | -1.75 | -1.27 | -1.02 | -1.47 | -1.51 | -0.85 | 0.21 | -2.7 | -1.35 | -2.52 | 64 (≈ 159 µM) | -0.05 | -0.48 | -1.54 | -0.91 | 0.5 (≈ 1.25 µM) | log10CFU/ml (Staphylococcus aureus [21]): -2.05; log10CFU/ml (Staphylococcus aureus [22]): -0.85; log10CFU/ml (Staphylococcus aureus [23]): -1.32; log10CFU/ml (Staphylococcus aureus [24]): -3; log10CFU/ml (Staphylococcus aureus [25]): -0.94
2 | CO[C@H]1/C=C/O[C@@]2(C)Oc3c(C)c(O)c4c(O)c(c(/C=N/N5CCN(C)CC5)c(O)c4c3C2=O)NC(=O)/C(C)=C\C=C\[C@H](C)[C@H](O)[C@@H](C)[C@@H](O)[C@@H](C)[C@H](OC(C)=O)[C@@H]1C [RIFAMPIN] | 0.015 (≈ 0.0182 µM) |  |  |  |  |  |  |  |  |  |  |  |  |  | 0.015 (≈ 0.0182 µM) |  |  |  |  | 0.015 (≈ 0.0182 µM) | 
3 | CCCCCCCCCC(=O)N[C@@H](Cc1c[nH]c2ccccc12)C(=O)N[C@H](CC(N)=O)C(=O)N[C@@H](CC(=O)O)C(=O)N[C@@H]1C(=O)NCC(=O)N[C@@H](CCCN)C(=O)N[C@@H](CC(=O)O)C(=O)N[C@H](C)C(=O)N[C@@H](CC(=O)O)C(=O)NCC(=O)N[C@H](CO)C(=O)N[C@@H]([C@H](C)CC(=O)O)C(=O)N[C@@H](CC(=O)c2ccccc2N)C(=O)O[C@@H]1C | 0.5 (≈ 0.309 µM) | -0.83 | -2.05 | -0.52 | -1.8 | -1.52 | 2.1 | 2.02 | 0.76 | 0.14 | 0.57 | -0.32 | 0 | 1.93 | 0.5 (≈ 0.309 µM) | 1.84 | -0.59 | 2 | -2 | 0.5 (≈ 0.309 µM) | log10CFU/ml (Staphylococcus aureus [26]): -1.7; Activity (Staphylococcus aureus [27]): Active; log10CFU/ml (Staphylococcus aureus [21]): -1.75; log10CFU/ml (Staphylococcus aureus [23]): -1.48; log10CFU/ml (Staphylococcus aureus [24]): -1.06; log10CFU/ml (Staphylococcus aureus [25]): -1.35; log10CFU/ml (Staphylococcus aureus [28]): 1.27
4 | CN[C@H](CC(C)C)C(=O)N[C@H]1C(=O)N[C@@H](CC(N)=O)C(=O)N[C@H]2C(=O)N[C@H]3C(=O)N[C@H](C(=O)N[C@H](C(=O)O)c4cc(O)cc(O)c4-c4cc3ccc4O)[C@H](O)c3ccc(c(Cl)c3)Oc3cc2cc(c3O[C@@H]2O[C@H](CO)[C@@H](O)[C@H](O)[C@H]2O[C@H]2C[C@](C)(N)[C@H](O)[C@H](C)O2)Oc2ccc(cc2Cl)[C@H]1O [VANCOMYCIN] |  | -1.6 | -1.14 | -0.85 | -0.84 | -0.51 | 2.47 | 2.17 | 1.85 | 0.6 | 0.98 | -0.46 | 0.03 | 2.23 |  | 2.14 | 0.51 | 2.17 | -0.85 |  | log10CFU/ml (Staphylococcus aureus [26]): -0.86; log10CFU/ml (Staphylococcus aureus [21]): -1.07; log10CFU/ml (Staphylococcus aureus [22]): -0.39; log10CFU/ml (Staphylococcus aureus [23]): -0.88; log10CFU/ml (Staphylococcus aureus [24]): -1.62; log10CFU/ml (Staphylococcus aureus [25]): -0.38; log10CFU/ml (Staphylococcus aureus [28]): 1.58
5 | GENTAMICIN | 128 |  |  |  |  |  |  |  |  |  |  |  |  |  | 2 |  |  |  |  | 1 | 
